# System: Tumor Necrosis Factor (TNF)
# Test: Tumor Necrosis Factor (TNF) production (immune stimulation)
# Assay type: cell-based
# Conditions: at a concentration of 50 mcg/mL
# Description: For example, the polysaccharide PS-I is shown to produce 256 Unit/mL of Tumor Necrosis Factor (TNF) at a concentration of 50 mcg/mL while a mixture of PS-II, PS-III and PS-IV is shown to produce 1000 Unit/mL of TNF at a concentration of 3 mcg/mL.
substance,measurement,value
Poly α (1→4) D-Galacturonic Acid [PS-I],Tumor Necrosis Factor (TNF) produced,256 Unit/mL
